The values that follow come from patent EP0167553B1, “NEW THERAPEUTICAL APPLICATION OF AN INDANE DIONE DERIVATIVE AND PHARMACEUTICAL COMPOSITIONS INTENDED TO SAID UTILIZATION” (priority 1983, dated 1985).

Series [1] in a line: Chronic administration, maximum tolerated dose in the rat. It is filed as in vivo. To be noted: rat, in vivo, administration chronique, read-out: dose maximale tolérée. Here is the method: (§1) • - Le comportement et l'[…] pondérale des animaux sont étudiés par l'observation quotidienne et les pesées hebdomadaires. L'étude de l'évolution pondérale ne montre pas de différence significative entre les différents lots. C'est un indice de bonne tolérance du traitement. • - La moralité est notée dans chaque lot; elle peut atteindre 30 % des animaux ce qui nécessite des lots de 15 animaux. L'administration chronique de 100 mg/kg de Clofibrate correspond à la dose maximale tolérée par le Rat sain selon nos expériences personnelles.

Series [2] has as its system Rat sain. Described as above. It is filed as in vivo. The note with it: administration chronique. Here is the method:
as §1

`CCOC(=O)C(C)(C)Oc1ccc(Cl)cc1` [Clofibrate]: the MTD in series [1] was approximately 100 mg/kg. Further, in series [2], the “dose maximale tolérée” value worked out at 100 mg/kg.
